Results taken from patent publication US11286268B1, “EIF4E-inhibiting compounds and methods” (EFFECTOR THERAPEUTICS, INC., priority 2019, dated 2022).
Like-named read-outs stand apart in the source and are kept apart here.

Assays:
MDA-MB-361 cells = test: Cell proliferation assay (CELLTITER-GLO); type: cell-based; conditions: Homo sapiens, 144 h, 6 days of treatment; for IC50: CELLTITER-GLO, % of DMSO control
Experimental: MDA-MB-361 cells were maintained in DMEM supplemented with 10% FBS and 1× penicillin/streptomycin solution at […] in a CO2 incubator. For cell proliferation assays, exponentially growing cells were seeded at 2,000 cells per well in 96-well flat bottom white polystyrene plates (ThermoFisher) and cultured overnight. The following day, compound was added in a 9 point 3-fold dilution series starting from a top concentration of 1 or 10 μM (as indicated) together with a DMSO control. The final DMSO concentration in samples was 0.1%.
Cells were incubated for up to 6 […] at 37° C. in a CO2 incubator. Baseline viability of untreated cells was measured on the day of treatment and proliferation was measured after 6 […] of treatment using CELLTITER-GLO® reagent from Promega (Madison, Wis.) according to the manufacturer's instructions. Response to compound was calculated relative to the DMSO control (% of control) using the formula, % of control (DMSO)=[(CTGcells+inhibitor)/(CTGDMSO control)]×100. Data were plotted using Prism (GraphPad software), and IC50 and Emax values were calculated from a 4 parameter, variable slope non-linear regression model. Results are shown below and in FIGS. 1-3.

recombinant eIF4E = recombinant eIF4E (Homo sapiens (Human), UniProt P06730); test: Fluorescence polarization competition assay for eIF4E binding potency
Outline: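 Competitive displacement format: compounds compete with a fluorescent m7GDP tracer (20 nM) for 75 nM recombinant eIF4E. Incubation is 30 min at room temperature, protected from light, with 1% DMSO. Polarization read gives IC50 over eight 3-fold concentrations.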

[1] = fluorescence polarization competition, 75 nM recombinant eIF4E, 20 nM EDA-m7GDP-ATTO-550, IC50 class, read-out: elF4E FP
[2] = inhibition of eIF4E/EDA-m7GDP-ATTO-550 binding by 50%, Table 4B calculated values, read-out: IC50
[3] = inhibition of eIF4E/EDA-m7GDP-ATTO-550 binding, calculated IC50 values, Table 4B, read-out: IC50

recombinant eIF4E, sequence (P06730 whole entry): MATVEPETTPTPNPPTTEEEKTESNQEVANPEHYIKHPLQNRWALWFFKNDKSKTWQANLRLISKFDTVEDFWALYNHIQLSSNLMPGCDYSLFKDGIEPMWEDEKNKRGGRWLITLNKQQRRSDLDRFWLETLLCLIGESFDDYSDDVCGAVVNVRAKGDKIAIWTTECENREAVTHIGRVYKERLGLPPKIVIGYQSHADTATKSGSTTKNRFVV

Row | SMILES | Emax (MDA-MB-361 cells; 4 parameter non-linear regression) | IC50 (MDA-MB-361 cells) | IC50 (recombinant eIF4E; [1]) | IC50 (recombinant eIF4E; [2]) | IC50 (recombinant eIF4E; [3])
1 | Cc1nc2cnc(N(C)C3CCN(C4CC(F)(F)C4)CC3)c(C#N)c2c(=O)n1CC#Cc1ccc(Cl)cc1-c1ccnc2c(C(=O)NS(C)(=O)=O)csc12 [compound 1188, 7-(5-chloro-2-(3-(5-cyano-6-((1-(3,3-difluorocyclobutyl)piperidin-4-yl)(methyl)amino)-2-methyl-4-oxopyrido[3,4-d]pyrimidin-3(4H)-yl)prop-1-yn-1-yl)phenyl)-N-(methylsulfonyl)thieno[3,2-b]pyridine-3-carboxamide] | 90.2% | 46.8 nM | < 50 nM | 12.4 nM | 
2 | Cc1cc(-c2cc(Cl)ccc2OCCn2c(C)nc3cc(C(F)(F)F)c(N4CCN(C)CC4)c(C#N)c3c2=O)c2scc(C(=O)O)c2n1 [compound 634, 7-(5-chloro-2-(2-(5-cyano-2-methyl-6-(4-methylpiperazin-1-yl)-4-oxo-7-(trifluoromethyl)quinazolin-3(4H)-yl)ethoxy)phenyl)-5-methylthieno[3,2-b]pyridine-3-carboxylic acid] |  | 3.8 nM | < 50 nM | 5.62 nM | 
3 | Cc1nc2cnc(N(C)C3CCN(CC(C)(F)F)CC3)c(C#N)c2c(=O)n1CC#Cc1ccc(Cl)cc1-c1ccnc2c(C(=O)O)csc12 [compound 1141, 7-(5-chloro-2-(3-(5-cyano-6-((1-(2,2-difluoropropyl)piperidin-4-yl)(methyl)amino)-2-methyl-4-oxopyrido[3,4-d]pyrimidin-3(4H)-yl)prop-1-yn-1-yl)phenyl)thieno[3,2-b]pyridine-3-carboxylic acid] |  | 361 nM | < 50 nM | 18.9 nM | 
4 | Cc1nc2cnc(N(C)C3CCN(C4(C(F)F)COC4)CC3)c(C#N)c2c(=O)n1CC#Cc1ccc(Cl)cc1-c1ccnc2c(C(=O)O)csc12 [compound 1182] |  |  | < 50 nM | 13.6 nM | 
5 | Cc1cc(-c2cc(Cl)ccc2OCCn2c(C)nc3cnc(-c4cccc(C(F)(F)F)c4)c(C#N)c3c2=O)c2scc(C(=O)O)c2n1 [compound 951] |  |  | < 50 nM | 43.6 nM | 
6 | Cc1nc2cnc(N(C)C3CCN([C@H]4C[C@H](OC(F)F)C4)CC3)c(C#N)c2c(=O)n1CC#Cc1ccc(Cl)cc1-c1ccnc2c(C(=O)NS(=O)(=O)c3ccccn3)csc12 [compound 1763] |  |  |  |  | 23.3 nM
7 | Cc1nc2cnc(N(C)[C@H]3CC[C@H](N(C)CC(F)F)CC3)c(C#N)c2c(=O)n1CC#Cc1ccc(Cl)cc1-c1ccnc2c(C(=O)O)csc12 [compound 1895] |  |  |  |  | 12.7 nM
8 | Cc1nc2cnc(N3CCC34CCN(CC(F)F)CC4)c(C#N)c2c(=O)n1CC#Cc1ccc(Cl)cc1-c1ccnc2c(C(=O)O)csc12 [compound 1500] |  |  |  |  | 17 nM
